Reference: US20080064027A1, “TEL/Etv6-mediated inhibition of cell proliferation” (priority 2002, published 2008)
Like-named read-outs stand apart in the source and are kept apart here.

System: Stat3-ER expressing A375 cells
Type: cell-based
Description: In order to understand Stat3's ability to affect cell proliferation and cell death, we have examined the profile of genes expressed upon Stat3 activation in A375 cells using oligonucleotide microarrays.
Briefly, microarray analysis was performed using HG U95A GeneChips™ (Affymetrix, Santa Clara, USA) essentially according to the manufacturer's instructions. […] RNA from three independent experiments was pooled and biotin-labeled cRNA probes were generated from each sample starting from 10 μg of total cellular RNA. The resulting biotinylated cRNAs were hybridized to the Affymetrix U95A oligonucleotide array containing more than 12,000 sequences and signals detected. Chip analysis was performed using the Affymetrix Microarray Suite v5 (target intensity 500 used for chip scaling) and GeneSpring 4.2.1 (Silicon Genetics). Changes in gene expression were assessed by looking for concordant changes between replicates using a signed Wilcoxon rank test (as recommended by Affymetrix).

oncostatin M [OSM]
expression change (fold): Major vault protein (Clone1): 2.9
expression change (fold): Nicotinamide N-methyltransferase (Clone1): 2.8
expression change (fold): Niemann-Pick disease, type C1 (Clone1): 1.7
expression change (fold): Oncostatin M receptor (Clone1): 1.9
expression change (fold): Osteoprotegrin (Clone1): 5.2
expression change (fold): Prostatic acid phosphatase precursor (Clone1): 4.5
expression change (fold): Ras-induced senescence 1 (Clone1): 1.8
expression change (fold): Regenerating islet-derived 1 alpha (pancreatic stone protein, pancreatic thread protein) (Clone1): 3.0
expression change (fold): Regulator of G protein signalling 16 (Clone1): 3.7
expression change (fold): STAT induced STAT inhibitor 3 (Clone1): 11.6
expression change (fold): Secreted phosphoprotein 1 (osteopontin, bone sialoprotein 1, early T-lymphocyte activation 1) (Clone1): 3.8
expression change (fold): Serine (or cysteine) protease inhibitor, clade B (ovalbumin), member 3 (Clone1): 28.8
expression change (fold): Small inducible cytokine A2 (monocyte chemotactic protein 1) (Clone1): 0.9
expression change (fold): Solute carrier family 2 (facilitated glucose transporter), member 3 (Clone1): 1.9
expression change (fold): Stanniocalcin 1 (Clone1): 2.8
expression change (fold): Tyrosine phosphatase/TIGR = HG620-HT620 (Clone1): 0.9
expression change (fold): v-fos FBJ murine osteosarcoma viral gene homologue (Clone1): 2.9
expression change (fold): v-jun avian sarcoma virus 17 oncogene homologue (Clone1): 1.4
expression change (fold): v-maf musculoaponeurotic fibrosarcoma oncogene homologue (avian) (Clone1): 2.5
expression change (fold): Aquaporin 3 (Clone1, 2nd listing): 9.2
expression change (fold): Fibronectin 1, isoform 1 preproprotein (Clone1, 2nd listing): 0.6
expression change (fold): Insulin-like growth factor binding protein 3 (Clone1, 2nd listing): 2.4
expression change (fold): Interleukin 8 (Clone1, 2nd listing): 1.2
expression change (fold): Kynureninase (L-kynurenine hydrolase) (Clone1, 2nd listing): 1.8
expression change (fold): Oncostatin M receptor (Clone1, 2nd listing): 1.9
expression change (fold): Prostatic acid phosphatase precursor (Clone1, 2nd listing): 1.0
expression change (fold): Secreted phosphoprotein 1 (osteopontin, bone sialoprotein 1, early T-lymphocyte activation 1) (Clone1, 2nd listing): 3.5
expression change (fold): v-jun avian sarcoma virus 17 oncogene homologue (Clone1, 2nd listing): 1.8
expression change (fold): Kynureninase (L-kynurenine hydrolase) (Clone1, 3rd listing): 1.9
expression change (fold): Absent in melanoma 2 (Clone2): 3.1
expression change (fold): Alpha-1-antichymotrypsin precursor (Clone2): 2.4
expression change (fold): Aquaporin 3 (Clone2): 3.8
expression change (fold): Brain-derived neurotrophic factor (Clone2): 4.7
expression change (fold): CCAAT/enhancer binding protein (C/EBP), delta (Clone2): 1.6
expression change (fold): Cathepsin L (Clone2): 3.4
expression change (fold): Cytokine receptor-like factor 1 (Clone2): 0.9
expression change (fold): Death-associated protein kinase 1 (Clone2): 6.9
expression change (fold): Ephrin A1 precursor (Clone2): 2.9
expression change (fold): Ets variant gene 6 (Clone2): 4.0
expression change (fold): Fibronectin (Clone2): 3.1
expression change (fold): Fibronectin 1, isoform 1 preproprotein (Clone2): 1.9
expression change (fold): Glycine dehydrogenase (decarboxylating, glycine decdarboxylase, glycine cleavage system protein P) (Clone2): 2.5
expression change (fold): I factor (complement) (Clone2): 2.2
expression change (fold): Insulin-like growth factor binding protein 3 (Clone2): 2.1
expression change (fold): Intercellular adhesion molecule 1 precursor (Clone2): 2.1
expression change (fold): Interferon induced transmembrane protein 1 (9-27) (Clone2): 0.6
expression change (fold): Interleukin 8 (Clone2): 0.6
expression change (fold): Jun B proto-oncogene (Clone2): 2.2
expression change (fold): KIAA0161 gene product (Clone2): 1.7
expression change (fold): KIAA0303 protein (Clone2): 2.4
expression change (fold): KIAA0500 protein (Clone2): 3.8
expression change (fold): Killer cell lectin-like receptor subfamily C, member 2 (Clone2): 1.0
expression change (fold): Killer cell lectin-like receptor subfamily C, member 3 isoform NKG2-E (Clone2): 0.4
expression change (fold): Kynureninase (L-kynurenine hydrolase) (Clone2): 1.7
expression change (fold): MHC class II transactivator (Clone2): 2.6
expression change (fold): MHC, class II, DQ alpha 1 precursor (Clone2): 2.3
expression change (fold): MHC, class II, DQ beta 1 (Clone2): 2.6
expression change (fold): Major vault protein (Clone2): 2.5
expression change (fold): Nicotinamide N-methyltransferase (Clone2): 1.9
expression change (fold): Niemann-Pick disease, type C1 (Clone2): 2.4
expression change (fold): Oncostatin M receptor (Clone2): 2.1
expression change (fold): Osteoprotegrin (Clone2): 0.7
expression change (fold): Prostatic acid phosphatase precursor (Clone2): 10.2
expression change (fold): Ras-induced senescence 1 (Clone2): 1.9
expression change (fold): Regenerating islet-derived 1 alpha (pancreatic stone protein, pancreatic thread protein) (Clone2): 3.0
expression change (fold): Regulator of G protein signalling 16 (Clone2): 2.1
expression change (fold): STAT induced STAT inhibitor 3 (Clone2): 9.7
expression change (fold): Secreted phosphoprotein 1 (osteopontin, bone sialoprotein 1, early T-lymphocyte activation 1) (Clone2): 11.3
expression change (fold): Serine (or cysteine) protease inhibitor, clade B (ovalbumin), member 3 (Clone2): 26.7
expression change (fold): Small inducible cytokine A2 (monocyte chemotactic protein 1) (Clone2): 1.5
expression change (fold): Solute carrier family 2 (facilitated glucose transporter), member 3 (Clone2): 2.6
expression change (fold): Stanniocalcin 1 (Clone2): 4.6
expression change (fold): Tyrosine phosphatase/TIGR = HG620-HT620 (Clone2): 1.6
expression change (fold): v-fos FBJ murine osteosarcoma viral gene homologue (Clone2): 4.6
expression change (fold): v-jun avian sarcoma virus 17 oncogene homologue (Clone2): 1.0
expression change (fold): v-maf musculoaponeurotic fibrosarcoma oncogene homologue (avian) (Clone2): 3.5
expression change (fold): Aquaporin 3 (Clone2, 2nd listing): 6.7
expression change (fold): Fibronectin 1, isoform 1 preproprotein (Clone2, 2nd listing): 2.3
expression change (fold): Insulin-like growth factor binding protein 3 (Clone2, 2nd listing): 1.7
expression change (fold): Interleukin 8 (Clone2, 2nd listing): 0.7
expression change (fold): Kynureninase (L-kynurenine hydrolase) (Clone2, 2nd listing): 1.3
expression change (fold): Oncostatin M receptor (Clone2, 2nd listing): 2.0
expression change (fold): Prostatic acid phosphatase precursor (Clone2, 2nd listing): 1.7
expression change (fold): Secreted phosphoprotein 1 (osteopontin, bone sialoprotein 1, early T-lymphocyte activation 1) (Clone2, 2nd listing): 5.7
expression change (fold): v-jun avian sarcoma virus 17 oncogene homologue (Clone2, 2nd listing): 1.1
expression change (fold): Kynureninase (L-kynurenine hydrolase) (Clone2, 3rd listing): 1.4
